Data on five molecules can be found in publication PMC3606118, “Salvianolic Acid A, a Novel Matrix Metalloproteinase-9 Inhibitor, Prevents Cardiac Remodeling in Spontaneously Hypertensive Rats” (PLoS ONE, 2013).

Structures are written as SMILES.

One may read the Kd as the concentration at which binding is half-saturated. In general, Ki refers to a dissociation constant, usually derived from enzyme kinetics or from competition with a known ligand. Read a high Ki as weaker binding.

Test [1] concerns the target T1, MMP-9 CD (Homo sapiens, UniProt P14780, DEL217-390).
T1 construct: corresponding to residues 107–216 and 391–444; made in house
T1 sequence (P14780 with tags, fused parts or gaps DEL217-390 limits assumed): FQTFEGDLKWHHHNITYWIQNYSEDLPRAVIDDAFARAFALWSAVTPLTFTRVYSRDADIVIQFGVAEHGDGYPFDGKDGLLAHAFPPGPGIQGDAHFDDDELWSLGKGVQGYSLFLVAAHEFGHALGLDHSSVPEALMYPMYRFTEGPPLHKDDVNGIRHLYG
As to the kind of experiment: Real time binding by surface plasmon resonance (Biacore). To be noted: for Kd: steady state affinity fit model, immobilized MMP-9 CD, 25°C, read-out: equilibrium dissociation constant (KD); for binding on MMP-9 CD: surface plasmon resonance. How it is done:
DNA fragments encoding the catalytic domain of MMP-9 (MMP-9 CD, corresponding to residues 107–216 and 391–444) were constructed and subcloned into a pET-15b vector (Novagen). […]. Surface plasmon resonance analysis was performed using Biacore 3000 (Biacore AB). In brief, MMP-9 CD protein (5.8 µmol/L) in 10 mmol/L sodium acetate buffer (pH 3.73) was covalently immobilized on the hydrophilic carboxymethylated dextran matrix of the CM5 sensor chip (BIAcore AB) using standard primary amine coupling procedure. Phenolic acid at various concentrations in HBS-EP running buffer (10 mmol/L HEPES pH 7.4, 150 mmol/L NaCl, 3.4 mmol/L EDTA and 0.005% surfactant P20) were injected at a constant flow rate of 30 µL/min at 25°C. All data were analyzed by BIAevaluation software and the sensorgrams were processed by automatic correction for nonspecific bulk refractive index effects.
Background: SPR reads the build-up and loss of mass on a sensor chip optically.

Test [2] addresses T1, MMP-9 CD. Nature of the test: MMP-9 inhibition assay (thiopeptolide, enzyme kinetic analysis). In kind it is biochemical. To be noted: for Ki: spectrophotometric enzyme kinetic assay, thiopeptolide substrate; for inhibition on MMP-9 CD: enzyme kinetic assay. How it is done: Phenolic acids at the indicated concentrations were incubated with the reaction mixtures contained MMP-9 CD (15 nmol/L) and 5,5′-dithiobis-(2-nitrobenzoic acid) (1 mmol/L) at 4°C for 30 min. The reaction was initiated by the addition of thiopeptolide (Ac-Pro-Leu-Gly-S-Leu-Leu-Gly-OEt). Hydrolysis of thiopeptolide was monitored at 412 nm using Benchmark Plus™ microplate spectrophotometer (Bio-Rad) at room temperature. Kinetic analysis of phenolic acids against MMP-9 CD was calculated using double reciprocal plots of 1/V versus 1/[thiopeptolide]. The slope of every double reciprocal plot is the Km ^app/Vmax of enzyme at different compound concentration. Secondary plot was drawn through Km ^app/Vmax versus compound concentration. Km ^app is apparent value of Km; Ki is inhibition constant; Ki was calculated using the equation Ki = [Km/Vmax][compound]/(Km ^app/Vmax –Km/Vmax).

As for `O=C(/C=C/c1ccc(O)c(O)c1)O[C@H](Cc1ccc(O)c(O)c1)C(=O)O` [rosmarinic acid], the Kd in test [1] was 10.7 µM. The molecule further showed an inhibition constant Ki in test [2] of 126 ± 8.73 µM.
Consider `O=C(/C=C/c1ccc(O)c2c1[C@H](C(=O)O)[C@@H](c1ccc(O)c(O)c1)O2)O[C@H](Cc1ccc(O)c(O)c1)C(=O)O` [lithospermic acid], for which the Kd in test [1] came out at 66.2 µM. In test [2], the inhibition constant (Ki) is 324 ± 132 µM.
As to `O=C(/C=C/c1ccc(O)c2oc(-c3ccc(O)c(O)c3)cc12)O[C@H](Cc1ccc(O)c(O)c1)C(=O)O` [SalC, salvianolic acid C], the Kd in test [1] amounted to 1.13 µM. The inhibitory constant (Ki) in test [2] was 110 ± 33.1 µM.
Take `O=Cc1ccc(O)c(O)c1` [protocatechualdehyde]: in test [1], the “binding on MMP-9 CD” value was “Neither binding nor inhibition was found”. The “inhibition on MMP-9 CD” value in test [2] was “Neither binding nor inhibition was found”.
`O=C(O)[C@H](O)Cc1ccc(O)c(O)c1` [danshensu]: in test [1], the “binding on MMP-9 CD” value was “Neither binding nor inhibition was found”. Moreover, in test [2], the “inhibition on MMP-9 CD” value is recorded as “Neither binding nor inhibition was found”.
